According to publication PMC10286459 (Cell & Bioscience, 2023):
Non-standard residues stand in square brackets, D forms with d. Residues, ends and D or L forms follow the SMILES beside them.

Legend:
full-length FOXM1 = molecular target: T1, full-length FOXM1 (Homo sapiens, UniProt Q08050); experiment: Biotin-peptide Pulldown with Streptavidin Magnetic Beads; format: binding; details: biotin-labeled peptide, cell lysates (500 µg) with endogenous or exogenous FOXM1; Western Blotting
T1 sequence (Q08050 703-763 limits assumed): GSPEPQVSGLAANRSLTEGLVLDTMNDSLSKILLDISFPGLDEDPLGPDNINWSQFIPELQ
Description: SDS-PAGE gel electrophoresis and Coomassie brilliant blue staining were performed to measure peptide stability. […] Cells were collected at different post-treatment time points (0, 1, 2, 4, 8, 16, 24, 36, 48 h). […] D The docking of peptide P22 (106–126) to the FOXM1 C-terminus (PDB ID 6OSW) was created by Rosetta FlexPepDock and PyMOL. Left, the interface of peptide-protein interaction, the peptide was shown in cyan, and the C-terminus of FOXM1 was shown according to its electrostatic potential. Right, hydrogen bonds are formed by residues at the interface of peptide and protein interaction. […] Streptavidin magnetic beads were added to lysates to pull down the biotin-peptides/protein complexes. […] M1-21mut was used as the control.

mouse Foxm1 = molecular target: T2, mouse Foxm1 (Mus musculus, UniProt O08696); experiment: Biotin-peptide Pulldown in 4T1 cell lysates; format: binding; details: biotin-labeled, 20 µM, 4T1 cell lysates (500 µg); Fig. S18B
T2 construct: endogenous in cells; host or cells: 4T1 mouse breast cancer cell lysate

[1] = In vivo imaging of distribution of ICG-labeled peptide; design: species or system mouse; details: ICG-labeled M1-21, 30 mg/kg tail vein, wild-type ICR/JCL mice; IVIS imaging 0.5-24 h
[2] = H&E staining of organs after repeated injection; format: in vivo, mouse; details: ICR/JCL mice, 30 mg/kg intraperitoneal once every two days for three weeks
Description: (§1) One week later, the animals’ different organs were harvested and subjected to tissue sectioning and H&E staining. Photos were taken by inverted microscope (400×, Nikon TE2000). […] The mice’s diet and activity were observed continuously for 14 days. […] Water and PBS were used as hemolysis positive and negative controls, respectively. The absorbance of the samples was measured at 540 nm and used to calculate the Hemolysis rate % = [(OD Sample - OD Negative) / (OD Positive - OD Negative)] × 100%. E Immunogenicity analysis of M1-21. […] Blood samples were collected from mice at different time points (Week 2 to Week 8) and the absorption of anti-M1-21 antibody in serum (1:1000 dilution) was measured by ELISA. HRP-conjugated anti-mouse IgG was used as an ELISA secondary antibody.

mouse erythrocytes = experiment: Hemolysis assay; details: 800 µg/mL, mouse blood 10% (v/v) in normal saline, 37℃ for 3 h, absorbance 540 nm
Description: as §1
Hemolysis assays were performed with fresh mouse blood collected and dispersed in normal saline (NaCl 0.9%) at 10% (v/v). […] Sterile double distilled water and PBS were used as positive and negative controls, respectively. Immunogenicity of M1-21 was detected by ELISA in mice. […] Blood samples were collected from mice at different time points (Week 2 to Week 8). […] ELISA plates were washed twice with PBS and blocked with 3% bovine serum albumin for 2 h. […] Absorption was measured at 492 nm.

MDA-MB-231 cells [3] = details: Biotin-M1-21 20 µM, 4 h, cytosol and nuclear protein samples, Western blotting
MDA-MB-231 cells [4] = experiment: Wound Healing assay; details: MDA-MB-231, 10 µM for 36 h; versus M1-21mut; n = 3
[5] = system: spontaneous breast cancers; experiment: Spontaneous breast cancer FVB/N MMTV-PyVT mice
Description: B Cancer tissue was harvested on Day 29 for imaging. The weight of cancer tissue was measured for GraphPad analysis. C The representative sections of the cancer samples of panel A were immunostained with anti-KI-67 antibody (1:200), and anti-CDC25B antibody (1:200) followed by microscope imaging (200×, Nikon TE2000). Scale bar: 200 μm.
FVB/N-Tg(MMTV-PyVT)634Mul/J transgenic mice [46] were purchased from The Jackson Laboratory (Bar Harbor, ME, USA). […] The mice were photographed every week thereafter. Cancer tissue from the animals was harvested on Day 29. The weight of the total cancer tissue from each mouse was measured and immunostaining sections of the cancer sample were performed for selected proteins.
The mice were imaged at different time points after treatment (Week 0, 1, 2, and 3). The number of tumors observed in each mouse was counted.

[6] = molecular target: truncated FOXM1 recombinant proteins tagged by GST (Homo sapiens, UniProt Q08050); experiment: Pulldown of GST-tagged truncated FOXM1 recombinant proteins; details: Biotin-M1-21 20 µM, recombinant protein 100 µg; Ponceau S
Target sequence in this assay (Q08050 221-353 isoform Q08050-2): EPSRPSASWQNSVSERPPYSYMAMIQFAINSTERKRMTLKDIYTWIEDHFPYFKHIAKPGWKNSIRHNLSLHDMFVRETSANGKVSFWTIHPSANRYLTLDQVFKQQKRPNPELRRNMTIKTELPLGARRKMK
Description: (§2) The recombinant proteins in the samples were separated by PAGE-gel and detected with Ponceau S staining solution (marked by *). 10% of recombinant proteins (10 µg) were used as input controls. […] Experiments were repeated three times with similar results. C Reporter plasmids containing the luciferase gene downstream of the 6×FOXM1 binding sequence (6×FOXM1 Binding-Luc, 0.4 µg) or the − 1.8 kb CDC25B promoter (CDC25B pro(-1.8 kb)-Luc, 0.4 µg) were co-transfected with pCMV-FOXM1 (0.6 µg) into HEK-293T cells, plus pRL-CMV plasmid (20 ng/well) as a loading control. […] Then cell lysates were prepared and used for the measurement of dual Luciferase activities. Number of repetitions = 3. […] Cell lysates (500 µg) were extracted and incubated with anti-Flag magnetic beads to pull down Flag-FOXM1/proteins complexes. The levels of Flag-FOXM1 and PLK1 proteins in the samples were detected by Western blotting. 5% of cell lysates (25 µg) were used as input controls. E Flag-FOXM1, LIN9, and B-MYB protein levels in panel D samples were detected by Western blotting. F Reporter plasmids containing the luciferase gene downstream of the − 1.4 kb PLK1 promoter (PLK1 pro(-1.4 kb)-Luc, 0.4 µg) were co-transfected with pCMV-FOXM1 (0.6 µg) into HEK-293T cells, plus pRL-CMV plasmid (20 ng/well) as loading control. […] Then cell lysates were prepared and used to measure dual Luciferase activity. Number of repetitions = 3. […] I TCF/LEF Binging-Luc reporter plasmid (0.4 µg) was co-transfected with pCMV-FOXM1 (0.6 µg) into HEK-293T cells, plus pRL-CMV plasmid (20 ng/well) as loading control. […] Then cell lysates were prepared and used to measure dual Luciferase activity. Number of repetitions = 3. […] The mRNA levels of PLK1, CDC25B, and Vimentin (VIM) were measured by qPCR. GAPDH was used as a loading control. […] The protein levels of PLK1, CDC25B, and Vimentin (VIM) were measured by Western blotting. β-actin was used as a loading control.
(§3) The magnetic beads were rinsed 5 times with pre-cooled 1×PBS, then the protein loading buffer was added, and the proteins were denatured at 95°C for 10 minutes. […]

[7] = molecular target: truncated FOXM1 recombinant proteins tagged by GST (Homo sapiens, UniProt Q08050); experiment: as above; details: Biotin-M1-21 20 µM, recombinant protein 100 µg; Ponceau S; remark: listed apart in the source
Target sequence in this assay (Q08050 1-138): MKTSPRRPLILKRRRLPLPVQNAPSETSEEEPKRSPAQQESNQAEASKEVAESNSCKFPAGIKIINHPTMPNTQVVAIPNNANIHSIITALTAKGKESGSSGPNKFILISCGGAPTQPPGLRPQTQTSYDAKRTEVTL
Description: as §2, §3

MDA-MB-231 cells [8] = experiment: mRNA and protein levels of marker and target genes (qPCR, Western blotting)
Description: The levels of mRNA or protein of E-cadherin (E-cad), Vimentin (VIM), and N-cadherin (N-cad) were measured by qPCR or Western blotting, respectively. GAPDH or β-actin was used as a loading control for mRNA or protein. mRNA values represented the mean ± SD of three replicates, and significance was calculated using unpaired t test. *P < 0.05; **P < 0.01; ***P < 0.001
The mRNA levels of PLK1, CDC25B, and Vimentin (VIM) were measured by qPCR. GAPDH was used as a loading control. […] The protein levels of PLK1, CDC25B, and Vimentin (VIM) were measured by Western blotting. β-actin was used as a loading control.
FOXM1 mRNA was detected by qPCR. GAPDH was used as a loading control.

[9] = 20 mg/kg intraperitoneal once daily for 28 days, Day 29
[10] = MDA-MB-231, 10 µM, 24 h, qPCR, Western blotting

T2 sequence (O08696 whole entry): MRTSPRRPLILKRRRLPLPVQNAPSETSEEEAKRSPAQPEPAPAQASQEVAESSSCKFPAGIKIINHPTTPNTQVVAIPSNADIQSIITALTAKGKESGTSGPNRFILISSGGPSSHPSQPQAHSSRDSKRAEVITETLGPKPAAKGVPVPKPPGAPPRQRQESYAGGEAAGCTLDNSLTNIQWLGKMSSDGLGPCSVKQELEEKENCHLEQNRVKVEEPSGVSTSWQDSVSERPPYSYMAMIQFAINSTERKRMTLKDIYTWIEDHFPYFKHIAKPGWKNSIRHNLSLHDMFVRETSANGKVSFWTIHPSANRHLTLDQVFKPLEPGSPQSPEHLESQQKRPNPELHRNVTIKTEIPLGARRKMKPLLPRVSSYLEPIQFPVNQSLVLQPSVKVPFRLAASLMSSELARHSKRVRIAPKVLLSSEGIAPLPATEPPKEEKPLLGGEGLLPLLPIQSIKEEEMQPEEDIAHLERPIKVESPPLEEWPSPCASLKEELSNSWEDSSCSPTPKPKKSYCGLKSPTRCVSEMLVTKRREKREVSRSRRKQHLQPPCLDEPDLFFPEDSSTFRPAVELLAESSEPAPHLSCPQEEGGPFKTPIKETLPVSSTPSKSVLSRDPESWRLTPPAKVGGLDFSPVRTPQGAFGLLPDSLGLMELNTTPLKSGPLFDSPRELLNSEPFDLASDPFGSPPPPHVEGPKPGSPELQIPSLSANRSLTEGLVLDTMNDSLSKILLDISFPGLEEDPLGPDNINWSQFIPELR

SMILES: CC[C@@H](C)[C@@H](NC(=O)[C@@H](CC(C)C)NC(=O)[C@H](NC(=O)[C@@H](CO)NC(=O)[C@@H](CS)NC(=O)CNC(=O)CNC(=O)[C@@H](C)NC(=O)[C@H]1CCCN1C(=O)[C@H](NC(=O)[C@@H](CCC(N)=O)NC(=O)[C@H]1CCCN1C(=O)[C@H]1CCCN1C(=O)CNC(=O)[C@@H](CC(C)C)NC(=O)[C@@H](CCCNC(=N)N)NC(=O)[C@H]1CCCN1C(=O)[C@@H](CCC(N)=O)NC(=O)[C@H](NC(=O)[C@H](N)CCC(N)=O)[C@H](C)O)[C@H](C)O)[C@H](C)CC)C(=O)N[C@H](Cc1ccccc1)C(=O)N[C@H](CCCNC(=N)N)C(=O)N[C@H](CCCNC(=N)N)C(=O)N[C@H](CCCNC(=N)N)C(=O)N[C@H](CCC(N)=O)C(=O)N[C@H](CCCNC(=N)N)C(=O)N[C@H](CCCNC(=N)N)C(=O)N[C@H](CCCCN)C(=O)N[C@H](CCCCN)C(=O)N[C@H](CCCNC(=N)N)C(=O)NCC(=O)O [M1-21] (H-[dQ][dT][dQ][dP][dR][dL]G[dP][dP][dQ][dT][dP][dA]GG[dC][dS][dI][dL][dI][dF][dR][dR][dR][dQ][dR][dR][dK][dK][dR]G-OH; N-terminus and C-terminus assumed)
- binding to full-length FOXM1 in Pulldown (full-length FOXM1): bound
- binding to endogenous mouse Foxm1 in Pulldown (mouse Foxm1): could bind
- period of stay in the body (stability in mice) [1]: > 15 h
- morphological lesions in heart, liver, spleen, lung, and kidney (H&E) [2]: no obvious morphological lesions
- hemolysis to erythrocytes (mouse erythrocytes): very mild hemolysis
- distribution after entering cells (MDA-MB-231 cells [3]): distributed in cytoplasm and nucleus
- cell migration (MDA-MB-231 cells [4]): inhibited
- mice with therapeutic benefit, of the seven treated [5, 9]: six mice had obvious therapeutic benefits and even one mouse was cancer-free
- weight of total cancer tissue from each mouse [5, 9]: inhibited cancer progression
- number of formed cancers ([5]; 20 mg/kg intraperitoneal once daily for 28 days, n = 7, versus PBS n = 4): dramatically decreased
- levels of KI-67 and CDC25B in cancer sections (immunostaining) ([5]; 20 mg/kg once daily for 28 days): dramatically down-regulated
- binding to GST-FOXM1_221-353 in Pulldown [6]: bound
- binding to GST-FOXM1_1-138 in Pulldown [7]: bound
- levels of epithelial marker E-cadherin (MDA-MB-231 cells [8]; [10]): increased
- levels of mesenchymal markers Vimentin and N-cadherin (MDA-MB-231 cells [8]; [10]): decreased
- mRNA and protein levels of PCNA and Cyclin B1 (MDA-MB-231 cells [8]; MDA-MB-231, 20 µM for 24 h, versus M1-21mut): downregulated
- levels (mRNA or protein) of FOXM1 itself (MDA-MB-231 cells [8]; MDA-MB-231, 20 µM, and spontaneously developed cancer tissues, Fig. S21): decrease the levels
- mRNA and protein levels of CDC25B, PLK1 and Vimentin (MDA-MB-231 cells [8]; MDA-MB-231, 20 µM, qPCR 24 h, Western blotting 1.5-36 h): dramatically repressed the expression
